Several values for one entry are separate records, joined by “and”; a condition that tells them apart may be missing. Identical values can stand only once.
Legend:
[1] = system: PRV; assay type: cell-based, pseudorabies virus
[2] = system: DF-1 cells
[3] = system: HSV-1; settings: read-out: IC50 against HSV-1; cited from earlier work
[4] = system: PRV; test: microbe, parasite or virus in culture; assay type: cell-based, pseudorabies virus; settings: for IC50: Suid alphaherpesvirus 1, HeLa, 24 h
[5] = system: HSV-2; settings: read-out: IC50 against HSV-2; cited from earlier work
[6] = system: enterovirus 71; settings: read-out: IC50 against enterovirus 71; cited from earlier work
[7] = in vitro; settings: human
[8] = system: HCMV; settings: read-out: IC50 against HCMV; cited from earlier work

CCn1c2ccccc2c2cc(Nc3ccnc(NCCCN4CCOCC4)n3)ccc21 [EHop-016]
viral protein load (Western blot) [1]: reduced the viral protein load | cytotoxicity / cell viability at the concentration used [2]: without cytotoxicity

Mazamine A
IC50 [3]: 1 µM

Oc1cccc2c1[nH]c1c(C3=C[C@@]4(O)CC/C=C\CCCCN5CC[C@@H]3[C@]3(C[C@@H]6/C=C\CCCCN6[C@H]34)C5)nccc12 [8-hydroxymanzamine A]
IC50 [3]: 3.7 µM

CCN(c1nc(N)c(C(=O)N=C(N)N)nc1Cl)C(C)C [EIPA, 5-[N-ethyl-N-isopropyl] amiloride]
viral protein load (US9 relative to β-actin, densitometry) [1]: 0.21 ± 0.01 | cytotoxicity / cell viability at the concentration used [2]: without cytotoxicity

Nc1nc2c(ncn2COCCO)c(=O)[nH]1 [Acyclovir]
reduction (positive control), primary screening [4]: 98% | IC50 [4]: 2.81 ± 0.3 µM

COc1ccc2c(c1)[nH]c1c(C)nccc12 [Compound 2, harmine]
IC50 [5]: 1.47 µM | inhibitory rate (reduction vs DMSO-treated cells), primary screening [4]: > 90% | reduction of production of infectious virus particles vs DMSO [4]: 2.3 Log | IC50 [4]: 1.19 ± 0.09 µM | IC50 [3]: 4.56 µM | IC50 [6]: 10 ± 2.5 µM | CC50 [7]: > 30 µM | cytotoxicity / cell viability at the concentration used [2]: without cytotoxicity | IC50 [8]: 0.71 ± 0.019 µM

ML-141
viral protein load (Western blot) [1]: reduced the viral protein load | cytotoxicity / cell viability at the concentration used [2]: without cytotoxicity

manzamine A monohydrochloride
IC50 [3]: 0.1 µM

COc1ccc2c3ccnc(C)c3n(C)c2c1 [Compound 3, 9-methyl-harmine]
inhibitory rate (reduction vs DMSO-treated cells), primary screening [4]: > 90% and > 99% | IC50 [4]: 0.52 ± 0.04 µM | CC50 [7]: > 30 µM

COc1cc(N2CCN(C)CC2)ccc1Nc1nccc(-c2cn(C)c3cnccc23)n1 [AZ191]
reduction of production of infectious virus particles vs DMSO [4]: 1.1 Log | cytotoxicity / cell viability at the concentration used [2]: did not affect cell viability

manzamine A monotartrate
IC50 [3]: 0.1 µM

— article PMC10140166 (The Journal of Biological Chemistry, 2023)
